Laboratory results from US20260327193A1, “INHIBITORS OF PLASMA KALLIKREIN” (Rezolute, Inc., priority 2022, published 2026).

What was measured:
Plasma Kallikrein [1] = target: T1, Plasma Kallikrein (Homo sapiens, UniProt P03952); assay: Plasma kallikrein activity in pooled human plasma; format: biochemical; design: Plasma Kallikrein activity was also measured in pooled human plasma; from tissue; host or cells: pooled human plasma; conditions: Z-FR-AMC substrate, activated with 10% Actin FS solution, 10 minutes, read-out: Pooled Human Plasma PKal IC50
Method: (§1) Plasma kallikrein protease inhibition assay. Two methods for determining the IC50 of a test compound against Plasma Kallikrein are provided.
Second, Plasma Kallikrein activity was also measured in pooled human plasma. First, a 10% Actin FS solution was prepared in assay buffer. Each test compound was dissolved in DMSO and delivered to the reaction mixture along with Z-FR-AMC substrate and pooled human plasma. The multi-well reaction plate was incubated for five minutes at room temperature. To initiate the reaction, the 10% Actin FS solution was added to each well, and kinetic measurements were taken at Ex/Em at 355/460 nm. The fluorescence signal was recorded every 30 seconds for a total of 10 minutes.

[2] = Caco-2 permeability assay; format: in vitro ADME; conditions: human, 10 μM test compound, pH 7.4, 37° C., 120 minutes, direction of the value not given, read-out: Caco-2 Perm
Method: Permeability Assay. A permeability study was conducted using Caco-2 cells (ECACC Cat. no. 09042001) seeded on cell inserts plate (Millicell, Cat #PSHT010R^5) at a density of 80,000 cells per well, and the cells were maintained for 18-21 days in culture medium (1×DMEM with 10% FBS, 0.1 mg/mL Penicillin/Streptomycin). The culture medium was changed every alternate day. Prior to the experiments, the integrity of the cellular monolayer was evaluated by measuring the TEER value using a volt ohm meter and STX100C96 electrode. Only monolayers with TEER values greater than 800 ohm·cm^2 in buffer after the first wash were used.
An assay buffer (HBSS with Ca+2 and Mg+2 buffered with 10 mM HEPES and 25 mM D-Glucose, pH-7.4) was used on apical side as well as on basolateral side.
An intermediate stock solution of a test compound was prepared in DMSO at a concentration of 1 mM in DMSO. This stock solution was spiked in the assay buffer to achieve a target test compound concentration of 10 μM. The organic content of final drug preparation was 1.0% v/v. The bidirectional permeability experiment was done in singlet and the sample analysis was done in duplicate.
The cultured cell monolayer was washed twice with assay buffer (0.4 mL and 0.8 mL was added to the apical and basolateral sides, respectively, of the culture plate), and then buffers from both compartments were discarded.
For the apical to basal (AP>BL) experiment, aliquots of 0.4 mL donor solution (assay buffer, pH 7.4 containing test compound) and 0.8 mL of receiver solutions (assay buffer, pH 7.4, only) were added to the apical and basolateral compartments, respectively. For the basal to apical (BL>AP) experiment, aliquots of 0.8 mL donor solution (assay buffer pH-7.4 containing test compound) and 0.4 mL of receiver solutions (assay buffer, pH-7.4) were added to the basolateral and apical compartments, respectively. The plate was then kept in an incubator at 37° C. for 120 minutes.
Control experiments with Propranolol (High Permeability), Atenolol (Low Permeability), Digoxin (High Efflux-Pgp substrate), and Digoxin+Verapamil (Pgp Inhibitor) in both directions (AP>BL and BL>AP) were performed in separate wells on the same experiment day.
After the completion of the transport experiment, the integrity of the cell monolayer was evaluated by measuring the Lucifer Yellow (LY) rejection. To do this, 400 μL of 10 μM LY was added to each well of the filter plate and incubated for 1 hour at 37° C. Subsequently, the samples were collected from the basolateral compartments, and the LY fluorescence was measured using an excitation wavelength of 485 nm and an emission wavelength of 530 nm. The percent LY rejection across the cell monolayer was calculated by measuring fluorescence in the receiver plate (basolateral compartment) compared to theoretical equilibrium standard.
The study samples (collected from apical and basolateral compartments after 120 min incubation) were analyzed by LCMS/MS, following which the Papp of the compound(s) was calculated in both apical to basal and basal to apical directions. Papp=([DBL]×VBL)/(A×t×[DAP]) where: [DBL]=final drug concentration on the basolateral side, VBL=volume of the basolateral compartment, A=surface area of the cell culture, t=total incubation time, and [DAP]=initial drug concentration on the apical side.

Plasma Kallikrein [3] = target: T1, Plasma Kallikrein; assay: Plasma kallikrein protease inhibition assay, purified enzyme; format: biochemical; design: NS0-derived Gly20-Ala638, with a C-terminal 60-His tag; 60-His (so in the source) (C); purchased R&D Systems 2497-SE; host or cells: Mouse myeloma cell line, NS0; conditions: 10 μM Z-FR-AMC substrate, 20-minute pre-incubation, pH 8.0/8.5, room temperature, read-out: Purified PKal IC50
Method: as §1
In the first method was used a reaction buffer composed of 25 mM Tris-HCl (pH 8.0), 100 mM NaCl (pH 8.5), 0.01% Brij35, and 1% DMSO (final). The enzyme used was Plasma Kallikrein (R&D Systems Cat #2497-SE; Recombinant Human Plasma Kallikrein, expressed in Mouse myeloma cell line, NS0-derived Gly20-Ala638, with a C-terminal 60-His tag. MW=70 kDa).
The enzyme was activated by dilution to 200 μg/mL in activation buffer (100 mM Tris, 10 mM CaCl2, 150 mM NaCl, pH 7.5 (TCN), and then combined with an equal volume of 20 μg/mL thermolysin to form a reaction buffer. Each test compound was then dissolved in DMSO and delivered into the reaction buffer. The reaction was initiated by delivering a substrate solution containing 10 μM Z-FR-AMC (Enzo Cat #P-139; AMC: 7-Amino-4-methylcoumarin) into the reaction well after a 20-minute pre-incubation period.
Measurement was conducted with En Vision (PE) with excitation and emission wavelengths of 355 nm and 460 nm, respectively. […]. The enzyme activities were monitored every 5 minutes as a time-course measurement of the increase in signal from fluorescently labeled peptide substrate for 120 minutes at room temperature.
Data was analyzed by taking slope*(signal/time) of the linear portion of measurements. Slope was calculated using Excel, and curve fits were performed using Prism software.

T1 sequence (P03952 391-638 limits assumed): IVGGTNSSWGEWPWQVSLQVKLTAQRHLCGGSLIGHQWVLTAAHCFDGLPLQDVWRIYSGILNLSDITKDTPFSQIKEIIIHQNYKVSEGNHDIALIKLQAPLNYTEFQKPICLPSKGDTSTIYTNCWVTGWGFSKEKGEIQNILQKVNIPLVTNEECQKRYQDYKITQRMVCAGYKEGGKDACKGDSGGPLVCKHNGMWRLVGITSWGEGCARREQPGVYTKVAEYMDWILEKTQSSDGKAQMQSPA
T1 sequence (P03952 20-390 partner limits assumed): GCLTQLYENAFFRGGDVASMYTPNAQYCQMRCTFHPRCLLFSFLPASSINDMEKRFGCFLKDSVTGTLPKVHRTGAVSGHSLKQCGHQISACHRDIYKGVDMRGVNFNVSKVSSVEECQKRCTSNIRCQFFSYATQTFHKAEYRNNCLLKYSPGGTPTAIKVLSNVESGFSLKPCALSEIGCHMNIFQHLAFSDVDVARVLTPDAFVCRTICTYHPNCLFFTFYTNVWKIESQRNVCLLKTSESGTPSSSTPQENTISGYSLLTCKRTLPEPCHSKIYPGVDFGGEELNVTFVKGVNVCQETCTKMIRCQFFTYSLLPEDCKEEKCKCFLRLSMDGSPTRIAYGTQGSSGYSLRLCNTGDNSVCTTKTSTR

Row | Structure (SMILES) | IC50 (Plasma Kallikrein [1]) [nM] | Papp at 2 h, 10 µM [2] [×10⁻⁶ cm/s] | IC50 (Plasma Kallikrein [3]) [nM]
1 | N#CCCc1ccc(Cn2cnc(C(=O)NCc3ccc(C(=N)N)cc3)c2)cc1 [Example 4, N-(4-carbamimidoylbenzyl)-1-(4-(2-cyanoethyl)benzyl)-1H-imidazole-4-carboxamide] |  | < 2 | < 1
2 | CC(C)(C#N)c1ccc(Cn2cc(C(=O)NCc3ccc(C(=N)N)cc3)cn2)cc1 [Example 7, N-(4-carbamimidoylbenzyl)-1-(4-(2-cyanopropan-2-yl)benzyl)-1H-pyrazole-4-carboxamide] | < 100 | < 2 | < 1
3 | CC(C)(C#N)c1ccc(Cn2cnc(C(=O)NCc3ccc(C(=N)N)cc3)c2)cc1 [Example 8, N-(4-carbamimidoylbenzyl)-1-(4-(2-cyanopropan-2-yl)benzyl)-1H-imidazole-4-carboxamide] |  | < 2 | 1 to 10
4 | N#CCc1ccc(Cn2cnc(C(=O)NCc3ccc(C(=N)N)cc3)c2)cc1 [Example 9, N-(4-carbamimidoylbenzyl)-1-(4-(cyanomethyl)benzyl)-1H-imidazole-4-carboxamide] |  | 2 to 10 | 1 to 10
5 | N#Cc1ccn(Cc2ccc(Cn3cc(C(=O)NCc4ccc(C(=N)N)cc4)cn3)cc2)c1 [Example 26, N-(4-carbamimidoylbenzyl)-1-(4-((3-cyano-1H-pyrrol-1-yl)methyl)benzyl)-1H-pyrazole-4-carboxamide] | < 100 | < 2 | < 1
6 | N#Cc1cccc(Cc2ccc(Cn3cc(C(=O)NCc4ccc(C(=N)N)cc4)cn3)cc2)c1 [Example 28, N-(4-carbamimidoylbenzyl)-1-(4-(3-cyanobenzyl)benzyl)-1H-pyrazole-4-carboxamide] | < 100 | < 2 | < 1
7 | CC(C)(C#N)c1ccc(Cn2cc(C(=O)NCc3ccc(C(=N)N)c(F)c3)cn2)cc1 [Example 43, N-(4-carbamimidoyl-3-fluorobenzyl)-1-(4-(2-cyanopropan-2-yl)benzyl)-1H-pyrazole-4-carboxamide] | < 100 | < 2 | 1 to 10
8 | CC(C)(C#N)c1ccc(Cn2cc(C(=O)NCc3ccc(C(=N)N)cc3F)cn2)cc1 [Example 45, N-(4-carbamimidoyl-2-fluorobenzyl)-1-(4-(2-cyanopropan-2-yl)benzyl)-1H-pyrazole-4-carboxamide] | < 100 | 2 to 10 | < 1
9 | COc1cc(CNC(=O)c2cnn(Cc3ccc(C(C)(C)C#N)cc3)c2)cc(F)c1C(=N)N [Example 48, N-(4-carbamimidoyl-3-fluoro-5-methoxybenzyl)-1-(4-(2-cyanopropan-2-yl)benzyl)-1H-pyrazole-4-carboxamide] | 100 to 1000 | < 2 | 10 to 100
10 | N#Cc1cccc(Cc2ccc(Cn3cc(C(=O)NCc4ccc(C(=N)N)c(F)c4)cn3)cc2)c1 [Example 49, N-(4-carbamimidoyl-3-fluorobenzyl)-1-(4-(3-cyanobenzyl)benzyl)-1H-pyrazole-4-carboxamide] | 100 to 1000 | < 2 | < 1
11 | N#Cc1cccc(Cc2ccc(Cn3cc(C(=O)NCc4ccc(C(=N)N)cc4F)cn3)cc2)c1 [Example 50, N-(4-carbamimidoyl-2-fluorobenzyl)-1-(4-(3-cyanobenzyl)benzyl)-1H-pyrazole-4-carboxamide] | < 100 | < 2 | < 1

More lines, now with the values ahead:

Row | IC50 (Plasma Kallikrein [1]) [nM] | Papp at 2 h, 10 µM [2] [×10⁻⁶ cm/s] | IC50 (Plasma Kallikrein [3]) [nM] | Structure (SMILES)
12 | < 100 | < 2 | < 1 | N#CCc1ccc(Cn2cc(C(=O)NCc3ccc(C(=N)N)cc3)cn2)cc1 [Example 1, N-(4-carbamimidoylbenzyl)-1-(4-(cyanomethyl)benzyl)-1H-pyrazole-4-carboxamide]
13 | < 100 | < 2 | < 1 | N#CCCc1ccc(Cn2cc(C(=O)NCc3ccc(C(=N)N)cc3)cn2)cc1 [Example 3, N-(4-carbamimidoylbenzyl)-1-(4-(2-cyanoethyl)benzyl)-1H-pyrazole-4-carboxamide]
14 | < 100 | 2 to 10 | < 1 | COCCc1ccc(Cn2cc(C(=O)NCc3ccc(C(=N)N)cc3)cn2)cc1 [Example 15, N-(4-carbamimidoylbenzyl)-1-(4-(2-methoxyethyl)benzyl)-1H-pyrazole-4-carboxamide]
15 |  | < 2 | 1 to 10 | N=C(N)c1ccc(CNC(=O)c2cnn(Cc3ccc(CC(N)=O)cc3)c2)cc1 [Example 18, 1-(4-(2-amino-2-oxoethyl)benzyl)-N-(4-carbamimidoylbenzyl)-1H-pyrazole-4-carboxamide]
16 | < 100 | < 2 | < 1 | CNC(=O)Cc1ccc(Cn2cc(C(=O)NCc3ccc(C(=N)N)cc3)cn2)cc1 [Example 19, N-(4-carbamimidoylbenzyl)-1-(4-(2-(methylamino)-2-oxoethyl)benzyl)-1H-pyrazole-4-carboxamide]
17 | < 100 | < 2 | < 1 | CN(C)C(=O)Cc1ccc(Cn2cc(C(=O)NCc3ccc(C(=N)N)cc3)cn2)cc1 [Example 33, N-(4-carbamimidoylbenzyl)-1-(4-(2-(dimethylamino)-2-oxoethyl)benzyl)-1H-pyrazole-4-carboxamide]
18 | < 100 | < 2 | 10 to 100 | COCCc1ccc(Cn2ncc(C(=O)NCc3ccc(C(=N)N)cc3)c2COC)cc1 [Example 87, N-(4-carbamimidoylbenzyl)-1-(4-(2-methoxyethyl)benzyl)-5-(methoxymethyl)-1H-pyrazole-4-carboxamide]
